{"source": "patent US20210260022A1", "about": "“SYNERGY FOR INCREASING ENERGY EXPENDITURE AND INSULIN SENSITIVITY” (The Board of Supervisors of Louisiana State University and …, priority 2018, published 2021)", "key": {"PPARα": {"target": "T1, PPARα (Homo sapiens, UniProt Q07869)", "T1 sequence (Q07869 1-468)": "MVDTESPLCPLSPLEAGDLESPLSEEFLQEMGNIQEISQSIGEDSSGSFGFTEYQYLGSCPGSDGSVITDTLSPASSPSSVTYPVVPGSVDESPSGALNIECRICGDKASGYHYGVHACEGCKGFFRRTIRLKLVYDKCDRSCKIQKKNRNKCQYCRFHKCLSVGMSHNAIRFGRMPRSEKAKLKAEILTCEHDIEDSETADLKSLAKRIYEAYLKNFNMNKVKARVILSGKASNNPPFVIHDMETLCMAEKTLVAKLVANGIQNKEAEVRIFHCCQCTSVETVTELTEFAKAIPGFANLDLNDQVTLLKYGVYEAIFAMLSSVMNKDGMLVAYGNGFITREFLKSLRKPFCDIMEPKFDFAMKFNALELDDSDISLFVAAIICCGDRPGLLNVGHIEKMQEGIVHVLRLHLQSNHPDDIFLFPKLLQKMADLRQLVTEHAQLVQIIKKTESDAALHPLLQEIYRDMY", "details": "reporter gene assays; cited from earlier work"}, "[1]": {"experiment": "Eight-week case study of naringenin 150 mg three times daily in a subject with diabetes", "type": "in vivo, human", "method": "A subject was recruited. […] The subject met the inclusion criteria of fasting blood glucose between 126 and 200 mg/dL. They had been prescribed metformin but had discontinued the medication due to gastrointestinal intolerance. Exclusion criteria consisted of known allergy to citrus fruit. The study was approved by the Pennington Biomedical Research Center (PBRC) Institutional Review Board. The participant provided written informed consent. Procedures were in accordance with PBRC's ethical standards. We conducted an eight-week case study. The subject completed three visits to the clinic. Visits were performed in the morning after an overnight fast for at least eight hours where only water was permitted. At the baseline visit, upon arrival, weight and vital signs (blood pressure and heart rate) were measured. […] Blood was collected for a chemistry panel (glucose, insulin, creatinine, potassium, uric acid, albumin, calcium, magnesium, creatine phosphokinase, alanine aminotransferase, alkaline phosphatase, iron, total cholesterol high density lipoprotein cholesterol [HDL-C], low density lipoprotein cholesterol [LDL-C], and triglycerides) and a complete blood count (CBC). Resting metabolic rate (RMR) was measured over five hours at baseline and at the end of eight weeks using the ventilated hood to collect expirated gases. The test required the subject to lie quietly in bed after ingesting a capsule containing 150 mg naringenin. To evaluate the subject's metabolic rate, oxygen consumed and the carbon dioxide given off were measured during the last thirty minutes of each hour. Following the baseline testing, the subject was given 100 capsules each containing 150 mg naringenin with instructions to take one orally three times daily. At weeks two and six, the subject received a phone call from the study coordinator and was asked about their progress and compliance. Changes in medications and adverse events were also evaluated. They were encouraged to comply with the study protocol. At week four, the subject returned to the clinic and their weight, blood pressure, and heart rate were measured. Any remaining capsules were collected and compliance was assessed. Naringenin (100 capsules) for the next four weeks was dispensed. Week eight marked the subject's last visit and involved repeating the baseline testing. At this visit, the subject returned any remaining capsules, and compliance was assessed. Whole sweet oranges (Citrus Sinensis) were subjected to an aqueous and ethanolic extraction process, dried, milled, and provided in a powder form by Green Chem/Gencor Lifestage Solutions (Irvine, Calif.). The quantification of naringenin in the extract, and the safety and pharmacokinetics of the extract in humans are previously described.^15 The extract contained 28% naringenin. Therefore each capsule prepared by the PBRC pharmacist contained 536 mg of the extract."}}, "note": "Entries after “also recorded” stand apart in the source; their conditions may differ."}
{"smiles": "O=C1C[C@@H](c2ccc(O)cc2)Oc2cc(O)cc(O)c21", "note": "[naringenin]", "values": [{"measurement": "activation of PPARα", "setting": "PPARα", "value": "Direct activation"}, {"measurement": "loss of body weight", "setting": "[1]; 150 mg three times a day, in 8 weeks", "value": 2.3, "unit": "%"}, {"measurement": "reduction in HOMA-IR", "setting": "[1]; absolute, eight weeks vs baseline", "value": 0.6}, {"measurement": "maximal respiratory quotient increase above baseline", "setting": "[1]; at one hour", "value": 1.2, "unit": "%"}, {"measurement": "RMR peak above baseline", "setting": "[1]; at one hour, after eight weeks", "value": 3.5, "unit": "%"}, {"measurement": "triglycerides after eight weeks", "setting": "[1]; baseline 53 mg/dL", "value": 70, "unit": "mg/day"}, {"measurement": "HOMA-IR at the end of the study", "setting": "[1]; baseline 3.4", "value": 2.8}, {"measurement": "Low density lipoprotein cholesterol decrease", "setting": "[1]; calculated with the Friedewald equation", "value": 10.3, "unit": "mg/dL"}, {"measurement": "adverse events", "setting": "[1]; eight weeks", "value": "No adverse events were reported"}, {"measurement": "blood safety markers", "setting": "[1]; eight weeks", "value": "within their reference ranges; also recorded: no clinically significant changes"}, {"measurement": "change in respiratory quotient", "setting": "[1]; eight weeks", "value": "no change; also recorded: did not change"}, {"measurement": "HOMA-IR reduction", "setting": "[1]; eight weeks vs baseline", "value": 17.6, "unit": "%"}, {"measurement": "change in glucose", "setting": "[1]; eight weeks vs baseline", "value": "not clinically significant"}, {"measurement": "triglycerides increase", "setting": "[1]; eight weeks vs baseline 53 mg/dL", "value": 32, "unit": "%"}, {"measurement": "loss of body weight at the 6 month plateau", "setting": "[1]; extrapolated from 8 weeks", "value": 4.6, "unit": "%"}, {"measurement": "Body weight decrease", "setting": "[1]; over eight weeks, vs baseline", "value": 2.3, "unit": "kg"}]}
